Results taken from patent US8716288B2, “Composition comprising benproperine derivatives as active ingredients for preventing and treating angiogenesis-related diseases” (Korea Research Institute of Bioscience and Biotechnology, priority 2010, dated 2014).
Marks after values point to notes of the source that are not given here.

How the values were obtained:
[1] = test system: DLD-1 cell (human colorectal cancer cell line in which PRL-3 is over-expressed); experiment: In vitro cell migration, trans-well assay; assay type: cell-based; details: for inhibitory activity against cell migration for colorectal cancer cell line: DLD-1, compared with control sample of 0.1% DMSO, FIG. 4
Procedure: In order to analyze inhibitory activity against in vitro cell migration of the benproperine derivative according to the present invention, after DLD-1 cell (ATCC-CCL-221), which is the human colorectal cancer cell lines in which PRL-3, cancer metastasis-related genes, is over-expressed, was grown around by 90% on the culture plate containing RPMI medium, the medium was removed and the cell was washed with PBS. The washed cell was processed with trypsin-EDTA, cultured CO2 incubator at 37° C. for […], and then detached. The resultant cells in which 10% FBS-containing RPMI medium was added were collected in the falcon tube and the medium was removed by centrifugation. The process in which FBS-free RPMI medium were added in the obtained cells and the medium was removed by centrifugation was repeated twice. After the obtained cells in which FBS-free RPMI medium was added were suspended, the number of cells was counted using a hemocytometer.
The cells of 8×10^4 cells/200 μl were added to trans-wells which were placed on 24-well plates. FBS-free RPMI medium of 500 μl was added using the empty space where trans-wells were placed on well plates and cultured in a CO2 incubator at 37° C. for 12 to 16 hours. After the medium has been removed by placing trans-wells upside down on hand towel following culture, crystal violet of 500 μl (20% MeOH in 5 mg/ml) was added to each well of 24-well plates and trans-wells were put in a CO2 incubator for 30 minutes. Stained trans-wells were washed with PBS and placed upside down on hand towel so that the remaining solution was impregnated. Membrane was placed on the cover slip with the side where the cells didn't move facing upwards and wiped well with a cotton swab. The cover slip on whose edges nail polish was applied a little was put on a slide glass and fixed. The prepared sample was photographed with an inverted microscope (TE 300, Nikon, Japan) equipped with digital camera and the number of cells having moved was counted.
Inhibitory activity against cell migration of benproperine and pharmaceutically acceptable salt thereof in Formulas 2 to 4 according to the present invention was observed by the above method, and inhibition rate was calculated by the Mathematical Equation 1.
Wherein the control sample was observed by adding 0.1% dimethyl sulfoxide (DMSO) only without addition of the compound in the present invention.

[2] = test system: melanoma cell line B16F10; experiment: In vitro cell migration, trans-well assay; assay type: cell-based, mouse; details: 10 μM, B16F10, FIG. 5
[3] = test system: DLD-1 cell (human colorectal cancer cell line in which PRL-3 is over-expressed); experiment: Cytotoxicity of benproperine, WST-1 assay; assay type: cell-based; details: DLD-1 cells, 48 hours, up to 10 μM, WST-1 absorbance at 450 nm, FIG. 2
Procedure: In order to examine the cytotoxicity of the benproperine derivative prepared in Reference Example 1, after DLD-1 cell (ATCC-CCL-221), which is the human colorectal cancer cell lines in which PRL-3 cancer metastasis-related genes is over-expressed, was cultured in the RPMI culture medium containing 10% fetal bovine serum (FBS) and maintained at 37° C., 5% CO2, the cell was detached using 0.05% trypsin-EDTA. 4×10^3 cells which were calculated by hemocytometer were inoculated in each well of 96-well plates medium containing 10% FBS, and cultured in 37° C. incubator containing 5% CO2. After 24 hours, the culture medium of each well was replaced with new medium containing control (0.1% DMSO) and benproperine in Formula 2, which was prepared in Reference Example 1, by concentration (5 to 10 μM) and replace it with a new medium, and was cultured in 37° C., 5% CO2 incubator for 48 hours. After WST-1 (Roche) of 10 μl was added in each well of the above plate followed by 2 hours of culture, absorbance was measured at 450 nm using ELISA reader (Bio-Rad).

[4] = Acute toxicity experiment of oral administration to rats; details: rat, in vivo, 1000 mg/kg
Procedure: In order to identify the toxicity of benproperine and pharmaceutically acceptable salt thereof according to the present invention, acute toxicity experiment was performed with laboratory animal as the subject as follow.
After 6-week-old specific pathogen free (SPF) SD bred rats were divided into groups of 2 specimens, and were orally administered once with benproperine which was prepared in Reference Example 1 and dissolved in injectable distilled water with a dose of 1000 mg/kg.

[5] = test system: B16F10 human melanoma cells; experiment: In vivo metastasis of cancer, melanoma cells inoculated to tail vein, lung colony count; design: species or system C57BL/6 mouse; details: 50 mg/kg intraperitoneally once a day, 14 times in total; for Inhibition rate (%) of metastasis: compared with control group, p < 0.001
Procedure: In order to analyze inhibitory activity against in vivo cell migration of benproperine according to the present invention, inhibitory activity against metastasis of cancer of benproperine was analyzed using tumor model where melanoma cells are transplanted.
Specifically, B16F10 […] melanoma cell line (ATCC-CRL-6475) was inoculated to DMEM (GIBCO, USA) medium containing 10% FBS (GIBCO, USA), and cultured at 5% CO2, 37° C. 7-week-old female specific pathogen free (SPF) C57BL/6 mouse was adapted to the laboratory environment by supplying enough antibiotic-free pellet feed (Samyang feed Inc., South Korea) and sterilized tap water, and then used in the experiment.
Cultured B16F10 […] melanoma cells were suspended in PBS 200 μl at the concentration of 2×10^6 cells/ml, and inoculated […] to tail vein of the above mouse using a 26 gauge needle. After 3 hours of inoculation, the mice were divided into two groups in which the control group treated with sterile distilled water and the experimental group was intraperitoneally administered with benproperine of 50 mg/kg once a day, 14 times in total. The administration continued for 13 consecutive days, and then stopped. On day after the administration, autopsy was performed to the mouse of each group to extract the lung, and the number of colonies of metastasized cancer cells (melanoma cells) was counted.

[6] = In vitro cell migration, trans-well assay; assay type: cell-based, human; details: 10 μM, A375P, FIG. 5
[7] = test system: vascular endothelial cell HUVECs; experiment: In vitro endothelial morphogenesis assay (tube formation on Matrigel); assay type: cell-based, human; details: 24 hours, FIG. 6
Procedure: Specifically, HUVECs (ATCC-CRL-2873) was brought into the starvation state by culturing in a serum-free medium overnight. Matrigel matrix (BD biosciences) of 0.2 ml was added in each well of 24-well plates and placed in the 37° C. incubator for 1 hour to coat the surface of well. 0.2 ml 2×10^4 cells prepared in the above were added to each well coated with Matrigel matrix and cultured in a CO2 incubator for 30 minutes. After culture, fresh medium containing benproperine of 1, 5, and 10 μM concentration was added in each well followed by the addition of 1% serum and cultured in a CO2 incubator for 24 hours. After culture, the degree of inhibitory activity against HUVECs tube formation of benproperine was observed under a microscope.

[8] = test system: pancreatic cancer cell line AsPc-1 cells; experiment: In vitro cell migration, trans-well assay; assay type: cell-based, human; details: 10 μM, AsPc-1, FIG. 5
[9] = Weight change in the AsPC-1 metastasis model (toxicity); assay type: in vivo, BALB/C nude mouse; details: 50 and 100 mg/kg orally, five times a week, total of 20 times, FIG. 7
Procedure: (§1) To be specific, the human-derived pancreatic cancer cell line AsPC-1 (adenocarcinoma; Pancrease cancer) had been stored frozen in liquid nitrogen and it was thawed and cultured in CO2 incubator (Form a, USA) with 5% CO2 at 37° C. Specific-pathogen-free (SPF) BALB/C nude mouse (orient, Korea) was used in this experiment.
The cultured cells were collected and diluted to a cell concentration of 5×10^6 cells/ml by adding serum free media. Then, the animal model was prepared by intravenous administration of 0.2 ml of the cell culture to each mouse. Subsequently, 5 mg/ml of benproperine phosphate (MD-164) (KRIBB, Korea) was prepared by dissolving it in 0.5% Tween80 and orally administered to the mouse at a dose of 10 ml/kg five times a week, for a total of 20 times.
First, in order to analyze the toxicity of benproperine phosphate, the weight of all test groups was measured prior to administration of the compound, three times a week during the test period.

[10] = test system: human-derived pancreatic cancer cell line (AsPC-1); experiment: In vivo metastasis of cancer, AsPC-1 transplanted in caudal vein, bioluminescence imaging; design: species or system BALB/C nude mouse; details: 50 mg/kg orally, 28th day after drug administration, lung, FIG. 8
Description: In order to examine the in vivo inhibitory activity of the salt of benproperine of the present invention against metastasis of cancer, the inhibitory activity of benproperine phosphate (MD-164) against metastasis of cancer and toxicity of the same were examined by using the animal model which was transplanted with human-derived pancreatic cancer cell line (AsPC-1) in caudal vein.
as §1, with “experiment. […]” for “experiment.”
Secondly, in order to establish an animal model of pulmonary metastases, luciferase stably expressing AsPC-1 cell line was transplanted into a tail vein of mouse at a dose of 1×10^6 cells/mouse. […] The bioluminescence value was measured for equal area of each mouse subject, and the metastasis inhibition rate (%) in the group administered with benproperine phosphate was determined compared to a control group by the Mathematical Equation 2.
On the 28th day after drug administration, the lung of animal model was collected, the number of colony was measured, and imaging signal (photone/s/sr) was also measured.

With CC(COc1ccccc1Cc1ccccc1O)N1CCCCC1 (centres unmarked) [2-hydroxybenproperine] the “inhibitory activity against cell migration for colorectal cancer cell line” value (from here on “inhibitory activity”) [1] was “inhibit effectively”.
For CC(COc1ccccc1Cc1ccccc1)N1CCCC(O)C1 (centres unmarked) [3-hydroxybenproperine], the “inhibitory activity” value [1] was “inhibit effectively”.
For CC(COc1ccccc1Cc1ccccc1)N1CCCCC1 (centres unmarked) [benproperine], the “cell migration compared with DMSO-treated sample” value [2] was “prominently inhibited”, the cytotoxicity [3] was “no cytotoxicity” and the LD50 ([4]; Sprague-Dawley (SD), rats, single oral administration, read-out: minimum lethal dose (LD50) for oral administration) was over 1000 mg/kg. For the same compound, the “clinical symptoms, death, or weight changes” value ([4]; po) was “not observed”, the “toxic change (hematological examination, biochemical examination of blood, autopsy)” value ([4]; po) was “no toxic change” and the “Inhibition rate (%) of metastasis” value [5] was 45.1%. For the same compound, the “Inhibition rate (%) of metastasis” value ([5]; listed as Benproperine) was 45.1* %, the “Number of lung colony (average ± SD)” value ([5]; negative control 106 ± 23.3) was 58.2 ± 25.8 and the “cell migration compared with DMSO-treated sample” value [6] was “prominently inhibited”. The “inhibition of tube formation of HUVECs” value ([7]; 10 μM, compared to DMSO-treated control group) was “significantly”, the “inhibition of tube formation of HUVECs” value ([7]; 1, 5 and 10 μM) was “concentration-dependent manner” and the “cell migration compared with DMSO-treated sample” value [8] was “prominently inhibited”. For the same compound, the “cell migration compared with DMSO-treated sample” value ([1]; 10 μM, DLD-1, FIG. 5) was “prominently inhibited”, the “inhibitory activity” value [1] was “inhibit effectively” and the inhibition at 5 µM ([1]; Homo sapiens, 5 μM, DLD-1, control 0.1% DMSO, FIG. 3, read-out: inhibition of migration of colorectal cancer cell compared to control) was over 80%. For the same compound, the inhibition at 10 µM ([1]; Homo sapiens, 10 μM, DLD-1, control 0.1% DMSO, FIG. 3, read-out: inhibition of migration of colorectal cancer cell compared to control) was over 90%.
With benproperine phosphate the “weight loss in comparison to a control group” value [9] was “no significant weight loss” and the “inhibition rate against metastasis compared to a control group” value [10] was 71.5%.
